In patent publication US7524885B2, “Compounds that stimulate glucose utilization and methods of use” (The Governors of the University of Alberta, priority 2002, dated 2009):

Tested on: isolated working rat heart
Experiment: Glucose oxidation in isolated perfused working rat heart ([U-14C]glucose, 14CO2 production)
Details: Table 2A; screening concentration 100 μM; isolated working rat heart; read-out: Glucose Oxidation (% above control)
Protocol: Rat hearts were cannulated for isolated working heart 60 minute aerobic perfusions as described in J Pharmacol Exp Ther. 1993; 264:135-144, the entire disclosure of which is incorporated herein by reference.
Male Sprague-Dawley rats (0.3-0.35 kg) were anesthetized with pentobarbital sodium (60 mg/kg IP) and hearts were quickly excised, the aorta was cannulated and a retrograde perfusion at 37° C. was initiated at a hydrostatic pressure of 60 mm Hg. Hearts were trimmed of excess tissue, and the pulmonary artery and the opening to the left atrium were then cannulated. After 15 min of Langendorff perfusion, hearts were switched to the working mode by clamping the aortic inflow line from the Langendorff reservoir and opening the left atrial inflow line. The perfusate was delivered from an oxygenator into the left atrium at a constant preload pressure of 11 mm Hg. Perfusate was ejected from spontaneously beating hearts into a compliance chamber (containing 1 ml of air) and into the aortic outflow line. The afterload was set at a hydrostatic pressure of 80 mm Hg. All working hearts were perfused with Krebs'-Henseleit solution containing calcium 2.5 mmol/L, glucose 5.5 mmol/L, 3% bovine serum albumin (fatty acid free, initial fractionation by heat shock, Sigma), and with 1.2 mmol/L palmitate. Palmitate was bound to the albumin as described in J Bio Chem. 1992; 267:3825-3831, the entire disclosure of which is incorporated herein by reference.
The perfusate was recirculated, and pH was adjusted to 7.4 by bubbling with a mixture containing 95% O2 and 5% CO2.
Spontaneously beating hearts were used in all perfusions. Heart rate and aortic pressure were measured with a Biopac Systems Inc. blood pressure transducer connected to the aortic outflow line. Cardiac output and aortic flow were measured with Transonic T206 ultrasonic flow probes in the preload and afterload lines, respectively. Coronary flow was calculated as the difference between cardiac output and aortic flow. Cardiac work was calculated as the product of systolic pressure and cardiac output.
Measurement of Glucose Oxidation: Glucose oxidation was measured simultaneously by perfusing hearts with [U-^14C] glucose according to the procedures discussed in Saddik M, et al., J Bio Chem. 1992; 267:3825-3831. The entire disclosure of this reference is incorporated herein by reference. The total myocardial ^14CO2 production was determined at 10-min intervals from the 60-min aerobic period. Glucose oxidation rates were determined by quantitative measurement of ^14CO2 production as described in Barbour RL, et al., Biochemistry. 1984; […]. The entire disclosure of this reference is incorporated herein by reference. ^14CO2 production for the control group were compared with the ^14CO2 production for the group treated with cyclopropanecarboxylic acid, 2-[2-(2-methoxy-ethoxy)-ethoxy]-ethyl ester. Results are shown on FIG. 1 and TABLE 2A.
The procedure of Example A for was followed except that cyclobutanecarboxylic acid, 2-[2-(2-methoxy-ethoxy)-ethoxy]-ethyl ester in 1 μM, 10 μM, 100 μM and 1000 μM amounts was added to the buffer in place of the cyclopropanecarboxylic acid, 2-[2-(2-methoxy-ethoxy)-ethoxy]-ethyl ester. The results are illustrated in FIG. 2 and TABLE 2A.
The procedure of Example A was followed except that cyclopropanecarboxylic acid, 2-isopropoxy-ethyl ester in 1 μM, 10 μM, 100 μM and 1000 μM amounts was added to the buffer in place of the cyclopropanecarboxylic acid, 2-[2-(2-methoxy-ethoxy)-ethoxy]-ethyl ester. The results are illustrated in FIG. 3 and TABLE 2A.
The procedure of Example A was followed except that various cyclobutanecarboxylic acid derivatives, cyclopropanecarboxylic acid derivatives and cyclobutanecarboxylic acid in the amounts of 100 μM or 1000 μM was added to the buffer in place of the cyclopropanecarboxylic acid, 2-[2-(2-methoxy-ethoxy)-ethoxy]-ethyl ester.

First: O=C(OCCOCCOCCOC(=O)C1CCC1)C1CCC1 [Compound 22MM075, Cyclobutanecarboxylic Acid, 2-[2-(2-cyclobutanecarbonyloxy-ethoxy)-ethoxy]-ethyl ester]
Second: O=C(OCCN(CCOC(=O)C1CC1)CCN(CCOC(=O)C1CC1)CCOC(=O)C1CC1)C1CC1 [Compound 23MM076, Cyclopropanecarboxylic acid 2-[{2-[bis(2-cyclopropanecarbonyloxy-ethyl)-amino]-ethyl}-(2-cyclopropanecarbonyloxy-ethyl)-amino] ethyl ester]
The activation at 100 µM of the first is lower: 184% for the first, 274% for the second.

For `CC(C)OCCNC(=O)C1CC1` [Compound 24MM077, Cyclopropanecarboxylic acid (2-isopropoxy-ethyl)-amide], the activation at 100 µM was 217%.

Same assay, conditions: Table 2B; screening concentration 100 μM; isolated working rat heart; read-out: Glucose Oxidation (% above control)

First: CCOCCOC(=O)C1(c2ccccc2)CC1 [Compound 27MM080, 1-Phenyl-cyclopropanecarboxylic acid 2-ethoxy-ethyl ester]
Second: COCCOCCOCCOC(=O)C1(c2ccccc2)CC1 [Compound 44MM097, 1-phenyl-cyclopropanecarboxylic acid 2[2-(2-methoxy-ethoxy)-ethoxy]-ethyl ester]
The activation at 100 µM of the first is higher: 148% for the first, 125% for the second.

Compared with `CCOCCOC(=O)C1(C)CC1` [Compound 28MM081, 1-Methyl-cyclopropanecarboxylic acid, 2-Ethoxy-ethyl ester], `CCOCCOC(=O)C1(C)CC1(Cl)Cl` (centres unmarked) [Compound 33MM086, 2,2-Dichloro-1-methyl-cyclopropanecarboxylic acid 2-ethoxy-ethyl ester] is lower in activation at 100 µM: 121% for the first, 117% for the second.

First: CCOCCOC(=O)C1C(C)(C)C1(C)C [Compound 29MM082, 2,2,3,3-Tetramethyl-cyclopropanecarboxylic acid, 2-Ethoxy-ethyl ester]
Second: CCOCCOC(=O)C1CC1C (stereo not drawn) [Compound 32MM085, Trans-2-methyl-cyclopropanecarboylic acid 2-ethoxy-ethyl ester]
The activation at 100 µM of the first is lower: 110% for the first, 150% for the second.

First: COCCOC(=O)C1CC1 [Compound 30MM083, Cyclopropanecarboxylic acid, 2-Methoxy-ethyl ester]
Second: O=C(OCCOC(=O)C1CC1)C1CC1 [Compound 45MM098, Cyclopropanecarboxylic acid 2-cyclopropanecarbonyloxy-ethyl ester]
The activation at 100 µM of the first is lower: 197% for the first, 358% for the second.

First: CCOCCOC(=O)C1(C(=O)OCCOCC)CC1 [Compound 31MM084, Cyclopropane-1,1-dicarboylic acid bis-(2-ethoxy-ethyl) ester]
Second: CCOCCOC(=O)C1(c2ccc(OC)cc2)CC1 [Compound 43MM096, 1-(4-methoxy-phenyl)-cyclopropanecarboxylic acid 2-ethoxy-ethyl ester]
The activation at 100 µM of the first is higher: 197% for the first, 93% for the second.

Compared with `CCOCCOC(=O)[C@]1(/C=C/c2ccccc2)C[C@H]1c1ccccc1` [Compound 34MM087, (1S,2S)-2-phenyl-1-styrl-cyclopropanecarboxylic acid 2 ethoxy-ethyl ester], `O=C(OCCOC(=O)C1(c2ccccc2)CC1)C1(c2ccccc2)CC1` [Compound 46MM099, 1-(1-Phenyl-1-cyclopropanecarboxylic acid)-2-(1-phenyl-1-cyclopropanecarbonyloxy)-ethyl ester] is lower in activation at 100 µM: 112% for the first, 93% for the second.

Compared with `O=C(OC[C@H]1O[C@H](OC(=O)C2CC2)[C@H](OC(=O)C2CC2)[C@@H](OC(=O)C2CC2)[C@@H]1OC(=O)C1CC1)C1CC1` [Compound 35MM088, 1,2,3,4,6-penta-O-(cyclopropanecarbonyl)-D-glucopyranose], `O=C(OCCN1CCOCC1)C1CC1` [Compound 39MM092, Cyclopropanecarboxylic acid 2-morpholin-4-yl-ethyl ester] is higher in activation at 100 µM: 205% for the first, 233% for the second.

Compared with `Cc1ncsc1CCOC(=O)C1CC1` [Compound 36MM089, Cyclopropanecarboxylic acid 2-(4-methyl-thiazol-5-yl)-ethyl ester], `CCC1(COC(=O)C2CC2)COCOC1` [Compound 40MM093, Cyclopropanecarboxylic acid 5-ethyl-[1,3]-dioxan-5.ylmethyl ester] is higher in activation at 100 µM: 202% for the first, 260% for the second.

Going from `COC(=O)CSC(=O)C1CC1` [Compound 37MM090, Cyclopropanecarbonylsulfanyl-acetic acid methyl ester] to `CC(=O)NCCSC(=O)C1CC1` [Compound 38MM091, Cyclopropanecarbothioic acid S-(2-acetylamino-ethyl) ester], the activation at 100 µM falls from 251% to 176%.

First: O=C(OCC1COc2ccccc2O1)C1CC1 (centres unmarked) [Compound 41MM094, Cyclopropanecarboxylic acid 2,3-dihydro-benzo(1,4)dioxin-2-ylmethyl ester]
Second: O=C(SCc1ccco1)C1CC1 [Compound 42MM095, Cyclopropanecarbothioic acid S-furan-2-yl methyl ester]
The activation at 100 µM of the first is higher: 389% for the first, 314% for the second.

Same assay, conditions: intact heart

For `O=C(O)C1CC1` [MM001, Cyclopropanecarboxylic acid], the “stimulation of glucose oxidation in the heart (in words)” value was “stimulator of glucose oxidation”.
For `O=C(O)C1CCC1` [MM013, Cyclobutanecarboxylic acid], the “stimulation of glucose oxidation in the heart (in words)” value was “stimulate glucose oxidation”.

Tested on: not given
Experiment: not given
Details: cited from earlier work

For `O=C(O)C(Cl)Cl` [DCA, dichloroacetate], the “biological half-life (in words)” value is listed as “short biological half-life”.
